Laboratory results taken from PMC10539439 (Pharmacological Reports, 2023).
Where “and” joins values, the source holds several entries; their conditions need not be identical. Identical values can stand only once.

What was measured:
[1] = Food intake of rats fed a high-fat diet; assay type: in vivo, rat; conditions: for food intake: high-fat diet, groups (cages) 1-3
Description: Male Wistar rats were housed in pairs and fed a high-fat diet consisting of a 40% fat blend (Labofeed B with 40% lard, Morawski, Manufacturer Feed, Poland) for 14 weeks, with water available ad libitum. Control rats were fed a standard diet (Labofeed B, Morawski Manufacturer Feed, Poland). After 10 weeks, rats with obesity-induced via their diet were randomly divided into three equal groups that had the same mean body weight and were treated ip with test compounds at doses of 2 or 5 mg/kg b.w./day (high-fat diet + 4OHGuanabenz) or control group: vehicle–water 0.3 ml/kg (high-fat diet + vehicle = obesity control group) once a day in the morning between 9:00 AM and 10:00 AM for 25 days. Control rats were maintained on a standard diet, with ip administration of vehicle – water (standard diet + vehicle = control group).
The high-fat diet contained 550 kcal and the standard diet 280 kcal per 100 g.
Food intake was measured three times a week, immediately before drug administration. In this target, food was provided to the animals in a certain amount (100 g/cage). The weight of food was measured using dedicated scale (WPT 1C, RADWAG Wagi Elektroniczne, Poland). Next, the total amount of food that the animals had not eaten during that period of time was collected from each cage and weighed, and then, the data were recorded. The next portion of food was subsequently weighed before serving, and so on.

α2B-adrenoceptor = target: T1, α2B-adrenoceptor (Homo sapiens, UniProt P18089); experiment: Intrinsic activity, AequoScreen aequorin calcium mobilization; assay type: cell-based
T1 sequence (P18089 1-450): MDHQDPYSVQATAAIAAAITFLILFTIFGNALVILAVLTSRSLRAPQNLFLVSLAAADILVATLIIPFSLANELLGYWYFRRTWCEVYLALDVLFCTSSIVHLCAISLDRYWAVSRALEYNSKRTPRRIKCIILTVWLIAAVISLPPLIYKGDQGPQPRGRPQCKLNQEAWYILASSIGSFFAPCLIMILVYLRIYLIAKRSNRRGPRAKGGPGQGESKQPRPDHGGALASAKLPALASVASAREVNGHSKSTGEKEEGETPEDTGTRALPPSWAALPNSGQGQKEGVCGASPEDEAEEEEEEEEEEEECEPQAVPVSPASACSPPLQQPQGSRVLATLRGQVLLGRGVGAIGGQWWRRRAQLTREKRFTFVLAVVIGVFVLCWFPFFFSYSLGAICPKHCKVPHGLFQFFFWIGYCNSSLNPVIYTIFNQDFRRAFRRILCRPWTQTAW
Description: The intrinsic activity at α2B-adrenoceptor was evaluated by luminescence detection of calcium mobilization using the recombinant expressed jellyfish photoprotein, aequorin.
Measurements were performed with the α2B-adrenergic AequoScreen cell line (PekinElmer cat. no. ES-031-AF). Cell density, in 96-well format measurements, was 5000 cells per well. […] Compound concentration series (50 μL/well) were diluted in 0.1% BSA (Intergen, cat. no. 3440–75) containing assay buffer (D-MEM/F-12, Invitrogen cat. no. 11039) and prepared in white ½ Area Plate—96-well microplates (PerkinElmer, cat. no. 6005560). The cell suspension was dispersed on the ligands using POLARstar optima reader injectors (BMG Labtech, Germany).
The concentration and dilution series having four replicates were prepared as instructed in the AequoScreen Starter Kit Manual. Cells were injected into wells with standard agonist or tested compounds using the POLARstar optima reader (BMG Labtech, Germany), and emitted light was recorded for 20 s. For the antagonist assay, cells were injected (50 μL) into the assay plate with antagonists (50 μL).

[2] = Body weight of non-obese rats fed a standard diet; assay type: in vivo, rat; conditions: for body weight of rat in g in particular day: standard diet, 5 mg/kg
Description: Male Wistar rats (190–220 g) were housed in pairs. The control group (standard diet + vehicle) received vehicle (water, ip), while the test group (standard diet + 4-OH-Guanabenz) was injected (ip) with 4-OH-Guanabenz at a dose of 5 mg/kg b.w. dissolved in water. Body weights were measured daily immediately prior to drug administration.

[3] = 5 mg/kg b.w., i.p.; cited from earlier work
[4] = 5 mg/kg b.w., i.p.; cited from earlier work; remark: listed apart in the source
[5] = 5 mg/kg b.w., i.p.; cited from earlier work; remark: listed apart in the source
[6] = 5 mg/kg b.w., i.p.; cited from earlier work; remark: listed apart in the source

SMILES: Cl.N=C(N)NN=Cc1c(Cl)cc(O)cc1Cl [4-OH-Guanabenz, 2-[(2,6-Dichloro-4-hydroxyphenyl)methylene]hydrazinecarboximidamide Hydrochloride]
- effect on calories consumed (in words) ([1]; high-fat diet rats, ip at both doses (2 or 5 mg/kg b.w.), vs obesity control group): reduced the number of calories consumed
- food intake ([1]; 2mg/kg, week 1, 2 mg/kg): 995.5 kcal/2rats and 924 kcal/2rats and 960 kcal/2rats
- food intake ([1]; 2mg/kg, week 2, 2 mg/kg): 891 kcal/2rats and 654.5 kcal/2rats and 772.5 kcal/2rats
- food intake ([1]; 2mg/kg, week 3, 2 mg/kg): 880 kcal/2rats and 863.5 kcal/2rats and 871.5 kcal/2rats
- food intake ([1]; 5mg/kg, week 1, 5 mg/kg): 363 kcal/2rats and 478.5 kcal/2rats and 346.5 kcal/2rats
- food intake ([1]; 5mg/kg, week 2, 5 mg/kg): 561 kcal/2rats and 621.5 kcal/2rats and 693 kcal/2rats
- food intake ([1]; 5mg/kg, week 3, 5 mg/kg): 599.5 kcal/2rats and 594 kcal/2rats and 665.5 kcal/2rats
- EC50 (α2B-adrenoceptor): 330 nM
- Intrinsic activity at α2B-adrenoceptor (in words) (α2B-adrenoceptor): antagonist activity
- effect on body weight (in words) ([2]; rats fed standard diet, 5 mg/kg b.w. ip): No significant effects on body weight
- body weight of rat in g in particular day ([2]; day 1, individual rats): 206 g and 214 g and 229 g and 239 g
- body weight of rat in g in particular day ([2]; day 2, individual rats): 206 g and 217 g and 231 g and 242 g
- body weight of rat in g in particular day ([2]; day 3, individual rats): 203 g and 214 g and 223 g and 240 g
- body weight of rat in g in particular day ([2]; day 4, individual rats): 207 g and 216 g and 230 g and 238 g
- body weight of rat in g in particular day ([2]; day 5, individual rats): 210 g and 220 g and 230 g and 241 g
- body weight of rat in g in particular day ([2]; day 6, individual rats): 212 g and 222 g and 230 g and 241 g
- body weight of rat in g in particular day ([2]; day 7, individual rats): 212 g and 218 g and 231 g and 244 g
- body weight of rat in g in particular day ([2]; day 8, individual rats): 214 g and 212 g and 227 g and 240 g
- body weight of rat in g in particular day ([2]; day 9, individual rats): 210 g (2×) and 222 g and 237 g
- body weight of rat in g in particular day ([2]; day 10, individual rats): 212 g and 215 g and 225 g and 240 g
- body weight of rat in g in particular day ([2]; day 11, individual rats): 213 g and 214 g and 222 g and 239 g
- body weight of rat in g in particular day ([2]; day 12, individual rats): 211 g and 213 g and 224 g and 241 g
- body weight of rat in g in particular day ([2]; day 13, individual rats): 214 g and 212 g and 225 g and 242 g
- body weight of rat in g in particular day ([2]; day 14, individual rats): 215 g and 211 g and 225 g and 239 g
- body weight of rat in g in particular day ([2]; day 15, individual rats): 217 g and 211 g and 224 g and 242 g
- body weight of rat in g in particular day ([2]; day 16, individual rats): 217 g and 213 g and 225 g and 242 g
- body weight of rat in g in particular day ([2]; day 17, individual rats): 218 g and 212 g and 226 g and 243 g
- body weight of rat in g in particular day ([2]; day 18, individual rats): 218 g and 214 g and 227 g and 243 g
- body weight of rat in g in particular day ([2]; day 19, individual rats): 219 g and 214 g and 227 g and 244 g
- body weight of rat in g in particular day ([2]; day 20, individual rats): 220 g and 215 g and 228 g and 244 g
- body weight of rat in g in particular day ([2]; day 21, individual rats): 220 g and 216 g and 228 g and 245 g
- body weight of rat in g in particular day ([2]; day 22, individual rats): 221 g and 216 g and 229 g and 245 g
- body weight of rat in g in particular day ([2]; day 23, individual rats): 221 g and 217 g and 229 g and 246 g
- body weight of rat in g in particular day ([2]; day 24, individual rats): 220 g and 217 g and 230 g and 246 g
- body weight of rat in g in particular day ([2]; day 25, individual rats): 221 g and 218 g and 230 g and 247 g

SMILES: N=C(N)N/N=C/c1c(Cl)cccc1Cl [Guanabenz]
- Blood pressure after one administration [3]: Change [17]
- Spontaneous activity [4]: ↓ [17]
- Body weight of obese animals [5]: ↓ [17]
- Amount of calories consumed [6]: ↓ [17]
